For the experiment, the target named is FP receptor (Homo sapiens (Human), UniProt P43088). Put plainly: In vitro test of inhibition of human FP receptor activity (PGF2α-induced calcium flux in FP-expressing CHEM1 cells). Type of experiment: cell-based. The conditions noted are these: PGF2α 2 nM, some mean values of multiple determinations. In short, it runs like this:
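FP antagonism in FP-expressing CHEM1 cells loaded with Fluo-8. Compound preincubated 10 min at 37° C, then receptor stimulated with 2 nM (final) PGF2α in calcium-free Tyrode with 2 mM CaCl2.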
A general note: Calcium assays in cells follow changes in intracellular calcium, usually with a dye or a luminescent sensor.

In US11149018B2, “Substituted N-arylethyl-2-aminoquinoline-4-carboxamides and use thereof” (Bayer Aktiengesellschaft, priority 2017, dated 2021) one finds IC50 data, which are given here for 20 compounds.

For orientation: IC50 means the midpoint of a concentration-inhibition curve.

FP receptor, sequence (P43088 whole entry): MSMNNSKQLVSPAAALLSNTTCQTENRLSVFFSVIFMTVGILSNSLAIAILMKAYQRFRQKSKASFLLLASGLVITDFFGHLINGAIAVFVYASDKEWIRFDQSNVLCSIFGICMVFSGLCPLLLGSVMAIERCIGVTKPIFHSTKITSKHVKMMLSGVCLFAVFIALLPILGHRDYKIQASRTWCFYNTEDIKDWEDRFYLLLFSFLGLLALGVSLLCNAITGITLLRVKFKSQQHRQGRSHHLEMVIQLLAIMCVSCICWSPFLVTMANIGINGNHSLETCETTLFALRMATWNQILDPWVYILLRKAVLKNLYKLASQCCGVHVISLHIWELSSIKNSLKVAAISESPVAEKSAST

For the compound `[2H]C1([2H])N(c2nc3ccc(Br)cc3c(C(=O)NCC(CCC(=O)O)c3c(F)ccc(F)c3Cl)c2C)C([2H])([2H])C([2H])([2H])C1([2H])[2H]` (single isomer, unassigned; (+)) [Example 281, (+)-5-[({6-Bromo-3-methyl-2-[(^2H8)pyrrolidin-1-yl]quinolin-4-yl}carbonyl)amino]-4-(2-chloro-3,6-difluorophenyl)pentanoic acid], the IC50 was 0.08 µM.

Turning to `Cc1c(N2CCCC2)nc2ccc(Br)cc2c1C(=O)NCC(CCC(=O)O)c1c(F)cccc1C(F)(F)F` (single isomer, unassigned; (-)) [Example 165, (−)-5-({[6-Bromo-3-methyl-2-(pyrrolidin-1-yl)quinolin-4-yl]carbonyl}amino)-4-[2-fluoro-6-(trifluoromethyl)phenyl]pentanoic acid], the IC50 amounted to 0.0029 µM.

`Cc1c(N2CCCCC2)nc2ccc(Br)cc2c1C(=O)NCC(CCC(=O)O)c1ccccc1C(F)(F)F` (single isomer, unassigned; (+)) [Example 113, (+)-5-({[6-Bromo-3-methyl-2-(piperidin-1-yl)quinolin-4-yl]carbonyl}amino)-4-[2-(trifluoromethyl)phenyl]pentanoic acid]: the half-maximal inhibitory concentration (IC50) stood at 0.0099 µM.

For `Cc1c(N2CCCC(F)C2)nc2ccc(Br)cc2c1C(=O)NCC(CCC(=O)O)c1ccccc1Cl` (single isomer, unassigned; (+)) [Example 188, (+)-5-[({6-Bromo-2-[3-fluoropiperidin-1-yl]-3-methylquinolin-4-yl}carbonyl)amino]-4-(2-chlorophenyl)pentanoic acid], the IC50 turned out to be 0.0061 µM.

With `Cc1c(NCCc2ccccc2)nc2ccc(Br)cc2c1C(=O)NCC(CC(=O)O)c1c(F)cccc1Cl` (racemic) [Example 4, (+/−)-4-[({6-Bromo-3-methyl-2-[(2-phenylethyl)amino]quinolin-4-yl}carbonyl)amino]-3-(2-chloro-6-fluorophenyl)butanoic acid], the IC50 was determined as 0.17 µM.

As for `Cc1c(N2CCCC2)nc2ccc(Br)cc2c1C(=O)NCC(CCC(=O)O)c1ccccc1OC(F)(F)F` (single isomer, unassigned; (+)) [Example 131, (+)-5-({[6-Bromo-3-methyl-2-(pyrrolidin-1-yl)quinolin-4-yl]carbonyl}amino)-4-[2-(trifluoromethoxy)phenyl]pentanoic acid], the IC50 stood at 0.0098 µM.

Consider `Cc1c(N2CCCO2)nc2ccc(Br)cc2c1C(=O)NCC(CCC(=O)O)c1cc(F)ccc1Cl` (racemic) [Example 14, (+/−)-5-({[6-Bromo-3-methyl-2-(1,2-oxazolidin-2-yl)quinolin-4-yl]carbonyl}amino)-4-(2-chloro-5-fluorophenyl)pentanoic acid], for which the half-inhibitory concentration (IC50) stood at 0.07 µM.

Consider `CCC1CCCN(c2nc3ccc(Br)cc3c(C(=O)NCC(CCC(=O)O)c3ccccc3OC(F)(F)F)c2C)C1` (single isomer, unassigned) [Example 206, 5-[({6-Bromo-2-[3-ethylpiperidin-1-yl]-3-methylquinolin-4-yl}carbonyl)amino]-4-[2-(trifluoromethoxy)phenyl]pentanoic acid], for which the half-maximal inhibitory concentration (IC50) worked out at 0.0095 µM.

As for `Cc1c(N2CC3CC(C3)C2)nc2ccc(Br)cc2c1C(=O)NCC(CCC(=O)O)c1ccccc1Cl` (racemic) [Example 73, (+/−)-5-[({2-[3-Azabicyclo[3.1.1]hept-3-yl]-6-bromo-3-methylquinolin-4-yl}carbonyl)amino]-4-(2-chlorophenyl)pentanoic acid], the half-inhibitory concentration (IC50) was determined as 0.048 µM.

Take `Cc1c(N2CC(F)C(F)C2)nc2ccc(Br)cc2c1C(=O)NCC(CCC(=O)O)c1ccccc1Cl` (stereo not drawn) [Example 69, 5-[({6-Bromo-2-[trans-3,4-difluoropyrrolidin-1-yl]-3-methylquinolin-4-yl}carbonyl)amino]-4-(2-chlorophenyl)pentanoic acid]: the half-inhibitory concentration (IC50) was 0.042 µM.

As to `Cc1c(N2CCCC(F)C2)nc2ccc(Br)cc2c1C(=O)NCC(CCC(=O)O)c1cc(F)ccc1F` (centres unmarked) [Example 264, 5-[({6-Bromo-2-(3-fluoropiperidin-1-yl)-3-methylquinolin-4-yl}carbonyl)amino]-4-(2,5-difluorophenyl)pentanoic acid], the IC50 stood at 0.03 µM.

In the case of `COC1CCCN(c2nc3ccc(Br)cc3c(C(=O)NCC(CCC(=O)O)c3cc(F)ccc3Cl)c2C)C1` (centres unmarked) [Example 19, 5-[({6-Bromo-2-[3-methoxypiperidin-1-yl]-3-methylquinolin-4-yl}carbonyl)amino]-4-(2-chloro-5-fluorophenyl)pentanoic acid], the IC50 stood at 0.13 µM.

For `Cc1ccccc1C(CCC(=O)O)CNC(=O)c1c(C)c(N2CCCC2)nc2ccc(Br)cc12` (racemic) [Example 232, (+/−)-5-({[6-Bromo-3-methyl-2-(pyrrolidin-1-yl)quinolin-4-yl]carbonyl}amino)-4-(2-methylphenyl)pentanoic acid], the half-inhibitory concentration (IC50) was determined as 0.018 µM.

For the compound `COC1CN(c2nc3ccc(Br)cc3c(C(=O)NCC(CCC(=O)O)c3ccccc3Cl)c2C)C1` (racemic) [Example 92, (+/−)-5-({[6-Bromo-2-(3-methoxyazetidin-1-yl)-3-methylquinolin-4-yl]carbonyl}amino)-4-(2-chlorophenyl)pentanoic acid], the IC50 was 0.39 µM.

Take `Cc1c(N2CCCC(N)C2)nc2ccc(Br)cc2c1C(=O)NCC(CCC(=O)O)c1ccccc1Cl` (centres unmarked) [Example 56, 5-[({2-[3-Aminopiperidin-1-yl]-6-bromo-3-methylquinolin-4-yl}carbonyl)amino]-4-(2-chlorophenyl)pentanoic acid]: the IC50 is 0.33 µM.

Take `Cc1c(N2CC=CCO2)nc2ccc(Br)cc2c1C(=O)NCC(CCC(=O)O)c1ccccc1Cl` (racemic) [Example 77, (+/−)-5-({[6-Bromo-2-(3,6-dihydro-2H-1,2-oxazin-2-yl)-3-methylquinolin-4-yl]carbonyl}amino)-4-(2-chlorophenyl)pentanoic acid]: the IC50 was determined as 0.066 µM.

Consider `Cc1c(N2CCCC(F)C2)nc2ccc(Br)cc2c1C(=O)NCC(CCC(=O)O)c1c(Cl)ccc(Cl)c1Cl` (single isomer, unassigned) [Example 224, 5-[({6-Bromo-2-[3-fluoropiperidin-1-yl]-3-methylquinolin-4-yl}carbonyl)amino]-4-(2,3,6-trichlorophenyl)pentanoic acid], for which the IC50 came out at 0.038 µM.

`Cc1c(N2CCCCCC2)nc2ccc(Br)cc2c1C(=O)NCC(CCC(=O)O)c1ccccc1C(F)(F)F` (single isomer, unassigned; (+)) [Example 122, (+)-5-({[2-(Azepan-1-yl)-6-bromo-3-methylquinolin-4-yl]carbonyl}amino)-4-[2-(trifluoromethyl)phenyl]pentanoic acid]: the half-maximal inhibitory concentration (IC50) came to 0.0067 µM.

As to `Cc1c(N2CC[C@H](F)C2)nc2ccc(Br)cc2c1C(=O)NCC(CCC(=O)O)c1ccccc1Cl` (stereo partly drawn) [Example 65, 5-[({6-Bromo-2-[(3S)-3-fluoropyrrolidin-1-yl]-3-methylquinolin-4-yl}carbonyl)amino]-4-(2-chlorophenyl)pentanoic acid], the IC50 was found to be 0.11 µM.

Regarding `Cc1c(N2CCCO2)nc2ccc(Br)cc2c1C(=O)NCC(CCC(=O)O)c1ccccc1Cl` (racemic) [Example 38, (+/−)-5-({[6-Bromo-3-methyl-2-(1,2-oxazolidin-2-yl)quinolin-4-yl]carbonyl}amino)-4-(2-chlorophenyl)pentanoic acid], the IC50 was found to be 0.11 µM.
